Results from PMC4336331, “Novel Receptor-Derived Cyclopeptides to Treat Heart Failure Caused by Anti-β1-Adrenoceptor Antibodies in a Human-Analogous Rat Model” (PLoS ONE, 2015).

Assays:
[1] = test system: anti-β1EC2-induced β1-AR/cAMP signaling in HEKβ1-cells; assay: FRET cAMP assay (Epac1-camps), blockade of anti-β1EC2-induced signals; type: cell-based, human; settings: HEKβ1-cells with Epac1-camps FRET-sensor; IgG pre-incubated with peptide (Fig. 1F)
Experimental: The effects of anti-β1EC2 on β1AR-mediated intracellular cAMP-production were assessed by measuring fluorescence resonance energy transfer (FRET) in HEKβ1-cells transiently transfected with a FRET-sensor for cAMP, Epac1-camps. The sensor consists of the cAMP-binding protein Epac1 flanked by enhanced cyan or yellow fluorescent protein. […] IgG-preparations were added to the cells at 0.13 μg/μl protein concentration; 2μM (-)isoproterenol (Sigma) was used as a reference to determine the maximal cAMP-response. To test the blocking-efficacy of β1EC2-CP on anti-β1EC2-induced adrenergic signaling, the different IgG-preparations were pre-incubated with β1EC2-CP (20 μg/μl) for 6 h at 4 °C; for pharmacological blockade of anti-β1EC2-induced signals we utilised 5.0μM bisoprolol.
(D) Immunostaining experiments with rat anti- β1EC2 (1:100) using HEK-cells stably expressing β1-ARs (HEK β1) or not (wild type; HEK WT). IgG was prepared from anti- β1EC2-positive rats or 0.9% NaCl-injected control rats. Amino-terminal β1AR-specific rabbit anti-bodies (1:250) served as positive controls. […] HEK β1-cells were transfected with the cAMP-sensor Epac1-camps, which reacts to cAMP-binding with a reduction in fluorescence resonance energy transfer (FRET) between its fluorophores cyan (CFP) and yellow fluorescent protein (YFP). […] Representative FRET-ratio traces of 1/5 experiments are shown. Values are given in % of maximal cAMP-response achieved with 0.3μM (-)isoproterenol (Iso).

rat anti-β1EC2 = assay: Competition-ELISA, blocking of rat anti-β1EC2; type: binding; settings: preincubation (12h, 4°C) with 40-fold excess of peptide; linear β1EC2-peptides (AA199-223) as antigen; n = 20 (Fig. 1B)

cyclo(RATHQEAINCYANETCCDFFTNQG) (cysteine pairing not given here) [β2EC2-CP, control for specificity, reference compound]
blockade of anti-β1EC2-induced cAMP-signals, in words [1]: not blocked at all | blocking of anti-β1EC2 in competition-ELISA, in words (rat anti-β1EC2): not blocked at all
